Assay results published in patent publication US9943501B2 (KOJUN JAPAN CO., LTD., priority 2014, dated 2018).

What was measured:
[1] = test system: liver (hepatocytes) of C57BL/6J mice fed with a high-fat diet; assay: Influence of administration on liver tissue (histopathological examination); type: in vivo, mouse; conditions: for deposition of fat droplets in the hepatocytes: 12 weeks, high-fat diet
Source text: In Example 13, the liver was collected during the collection of fat tissues from each individual and histopathologically examined. The findings from the histopathological examination were as described below.
For the individuals of the normal group, the deposition of fat droplets was not observed in the hepatocytes, whereas only the very mild infiltration of inflammatory cells was observed.

[2] = target: T1, human-derived PPARγ ligand-binding domain (Homo sapiens, UniProt P37231); assay: PPARγ activation test (GAL4 chimera / luciferase reporter in CV-1 cells); type: cell-based; conditions: for PPARγ ligand activity, ratio (%) of the activity of each synthesized product to the activity of the control substance (DMSO): control = 100
T1 construct: expressed in transfected cells; host or cells: CV-1 cells (African green monkey kidney-derived)
T1 sequence (P37231 238-503 limits assumed): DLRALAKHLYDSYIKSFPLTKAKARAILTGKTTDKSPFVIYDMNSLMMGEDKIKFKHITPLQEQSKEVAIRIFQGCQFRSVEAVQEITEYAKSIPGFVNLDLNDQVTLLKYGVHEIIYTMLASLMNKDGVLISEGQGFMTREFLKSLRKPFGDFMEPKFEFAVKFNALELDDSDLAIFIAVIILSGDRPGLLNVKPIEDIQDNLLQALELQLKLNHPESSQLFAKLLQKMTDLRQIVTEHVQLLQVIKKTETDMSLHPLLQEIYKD
Method: A measurement method for the PPAR activation test in Examples below were conducted as described below.
(1) PPARγ Activation Test
A plasmid pM-PPARγ for the expression of a chimeric protein composed of a human-derived PPARγ ligand-binding domain and a DNA-binding domain of a yeast-derived GAL4 transcription factor, and a plasmid p4×UASg-tk-luc containing a Cypridina-derived luciferase structural gene linked downstream of a GAL4 responsive sequence designed such that its expression was controlled by this chimeric protein, were prepared. Also, a Renilla-derived luciferase expression plasmid pRL-CMV having a viral expression promoter for constitutive intracellular expression was prepared as a plasmid for the correction of transfection efficiency. On the other hand, DMEM containing 10% FBS was used as a medium for CV-1 cells (African green monkey kidney-derived). The CV-1 cells were seeded at 4.5×10^5 cells over a 100-mm Petri dish and cultured in an incubator at 37° C. in a 5% CO2 environment.
(1-2) Transformation of CV-1 Cell
The CV-1 cells thus cultured for 24 hours were cotransfected with 2.0 μg of pM-PPARγ, 4.0 μg of p4×UASg-tk-luc, and 0.04 μg of pRL-CMV to transform the CV-1 cells. The transformation was carried out by the liposome method using LipofectAMINE(R) Reagent (a product of Invitrogen Corp.). After the transformation operation, the cells were cultured at 37° C. for 3.5 hours in a 5% CO2 environment.
(1-3) Addition of Test Sample
The CV-1 cells thus incubated were recovered by trypsin treatment, and […] thereof was inoculated at a concentration of 1×10^5 cells/mL to a 96-well plate. Each test sample was diluted with DMEM containing 4% FBS to adjust its concentration to twice the final concentration, and […] thereof was added to the 96-well plate mentioned above. DMSO was used as a control substance. After the addition of the test sample or the control substance (DMSO), the mixture was incubated at 37° C. for 24 hours in a 5% CO2 environment.
(1-4) Measurement of Luciferase Activity
The luciferase activity was measured using Dual-Luciferase(R) Reporter Assay System (a product of Promega K.K.). The culture solution was removed from the 96-well plate. The cells were washed with PBS(−), and moisture was removed therefrom using a paper towel. To the cells, […] of a cell lysis solution (Passive Lysis Buffer) was added, and the 96-well plate was shaken for 15 minutes. The cell extract was transferred at […] to a 96-well luminoplate. A luminescent substrate solution was added thereto at […]. The luminescence intensity based on the luciferase was measured for a measurement time set to 10 seconds using a luminometer (Micro Lumat Plus, a product of Berthold Japan Co., Ltd.).
The PPARγ-activating effect of the test sample was evaluated on the basis of a ratio (%) relative to controls. In order to correct transfection efficiency, the measured Cypridina luciferase activity value (A) was divided by the measured Renilla luciferase activity value (B) to determine a value (A/B). The average A/B value of the control group was calculated and defined as 100. The A/B value of the test sample was calculated, and the ratio (%) of this value to the average value of the controls was used as the ability of the test sample to activate PPARγ.
Their PPARγ ligand activity was measured in the same way as in Example 7 except that the incubation time after the test sample addition was set to 48 hours. The values shown in the table below and the ordinate of the drawing depict the ratio (%) of the activity of each synthesized product to the activity of the control substance (DMSO). In Table 1 and FIG. 13, these various butenolide compounds used as test samples were each indicated by the functional group of R^2 in the formula (1).

[3] = test system: C57BL/6J mice fed with a high-fat diet; assay: Amounts of subcutaneous fat and visceral fat in dietary-induced obesity mouse model; type: in vivo; conditions: 85 days, relative to increase in control group over normal group
Method: For each individual of the male C57BL/6J mice after lapse of 85 days into the test of Example 9, blood was collected under anesthesia with 2% isoflurane, and the mice were then euthanized. Inguinal subcutaneous fat, epididymal fat, perirenal fat, and mesenteric fat were collected from each individual. The weight of each fat was measured, and the average fat weights of each test group were determined.
The ordinate of the drawing depicts the measured weight (g) of each fat tissue. Each bar of the bar graph indicates the normal group, the control group, the 5H4PB 0.037 μg/kg/day administration group, the 5H4PB 0.01 mg/kg/day administration group, the rosiglitazone 0.037 μg/kg/day administration group, and the rosiglitazone 10 mg/kg/day administration group from the left to the right. […] Specifically, increase in the amount of each fat tissue was inhibited by approximately 35% for the inguinal subcutaneous fat, approximately 18% for the epididymal fat, approximately 13% for the perirenal fat, and approximately 16% for the mesenteric fat in the test group administered 0.037 μg/kg/day of 5H4PB, while increase in the amount of each fat tissue was inhibited by approximately 34% for the inguinal subcutaneous fat, approximately 15% for the epididymal fat, approximately 13% for the perirenal fat, and approximately 40% for the mesenteric fat in the test group administered 0.01 […] of 5H4PB, with respect to the amount of each fat tissue increased in the control group due to the high-calorie diet (the value determined by subtracting the fat tissue weight of the normal group from the fat tissue weight of the control group). Thus, 5H4PB administered at a low dose was confirmed to have subcutaneous fat and visceral fat accumulation inhibitory effects.

[4] = 0.01 μg/kg/day (so in the source)

Compound: O=C1C=C(c2ccccc2)C(O)O1 (stereo not drawn) [5H4PB, 5-hydroxy-4-phenylbutenolide]
- deposition of fat droplets in the hepatocytes ([1]; 0.037 μg/kg/day): no or only weak depositions of fat droplets
- deposition of fat droplets in the hepatocytes ([1]; 0.01 mg/kg/day): no or only weak depositions of fat droplets
- hepatic damage (histopathological findings) ([1]; compared with the rosiglitazone administration groups or the control group): free from hepatic damage
- PPARγ ligand activity of butenolide compounds (in words) ([2]; Example 8, incubation 48 hours, Table 1 and FIG. 13): high activity in a low concentration range
- PPARγ ligand activity of synthesized product ([2]; final concentration 3.5 μM, incubation 24 hours, FIG. 12): high PPARγ ligand activity
- PPARγ ligand activity, ratio (%) of the activity of each synthesized product to the activity of the control substance (DMSO) ([2]; test sample concentration 0.032 μg/mL, incubation 48 hours): 100%
- PPARγ ligand activity, ratio (%) of the activity of each synthesized product to the activity of the control substance (DMSO) ([2]; test sample concentration 0.08 μg/mL, incubation 48 hours): 80%
- PPARγ ligand activity, ratio (%) of the activity of each synthesized product to the activity of the control substance (DMSO) ([2]; test sample concentration 0.16 μg/mL, incubation 48 hours): 120%
- PPARγ ligand activity, ratio (%) of the activity of each synthesized product to the activity of the control substance (DMSO) ([2]; test sample concentration 0.4 μg/mL, incubation 48 hours): 120%
- PPARγ ligand activity, ratio (%) of the activity of each synthesized product to the activity of the control substance (DMSO) ([2]; test sample concentration 0.8 μg/mL, incubation 48 hours, * = twice or more vs control, p<0.05): 220* %
- PPARγ ligand activity, ratio (%) of the activity of each synthesized product to the activity of the control substance (DMSO) ([2]; test sample concentration 2 μg/mL, incubation 48 hours, * = twice or more vs control, p<0.05): 370* %
- PPARγ ligand activity, ratio (%) of the activity of each synthesized product to the activity of the control substance (DMSO) ([2]; test sample concentration 4 μg/mL, incubation 48 hours, * = twice or more vs control, p<0.05): 520* %
- PPARγ ligand activity, ratio (%) of the activity of each synthesized product to the activity of the control substance (DMSO) ([2]; test sample concentration 10 μg/mL, incubation 48 hours, * = twice or more vs control, p<0.05): 710* %
- increase in the amount of epididymal fat inhibited [3, 4]: approximately 15%
- increase in the amount of inguinal subcutaneous fat inhibited [3, 4]: approximately 34%
- increase in the amount of mesenteric fat inhibited [3, 4]: approximately 40%
- increase in the amount of perirenal fat inhibited [3, 4]: approximately 13%
- increase in the amount of epididymal fat inhibited ([3]; 0.037 μg/kg/day): approximately 18%
- increase in the amount of inguinal subcutaneous fat inhibited ([3]; 0.037 μg/kg/day): approximately 35%
- increase in the amount of mesenteric fat inhibited ([3]; 0.037 μg/kg/day): approximately 16%
- increase in the amount of perirenal fat inhibited ([3]; 0.037 μg/kg/day): approximately 13%
